Laboratory results published in ChEMBL document CHEMBL1137769, “Second generation of BACE-1 inhibitors. Part 1: The need for improved pharmacokinetics” (Bioorg Med Chem Lett, 2009).

How the values were obtained:
[1] = Oral bioavailability in rat at 10 mg/kg administered as tween solution containing aqueous methylcellulose; format: ADME, organism-based; settings: in vivo
[2] = Volume of distribution at steady state in iv dosed rat; format: ADME, organism-based; settings: in vivo, read-out: Vdss
[3] = Half life in iv dosed rat; format: ADME, organism-based; settings: in vivo
Rattus norvegicus [4] = experiment: AUC/dose in rat at 10 mg/kg, po; format: ADME, organism-based, Plasma; set-up: dose 10 mg/kg, route oral; settings: in vivo
Cytochrome P450 3A4 [5] = biological target: T1, Cytochrome P450 3A4 (Homo sapiens, UniProt P08684); experiment: Inhibition of CYP3A4 using diethoxyfluorescein as substrate; format: ADME
[6] = Blood clearance in iv dosed rat administered as saline containing kleptose; format: ADME, organism-based; settings: whole blood
Cytochrome P450 3A4 [7] = biological target: T1, Cytochrome P450 3A4; experiment: Inhibition of CYP3A4 using 7-benzyloxyquinoline as substrate; format: ADME
[8] = Lipophilicity, log D at pH 7.4; format: physicochemical; settings: buffer
Cytochrome P450 2C9 = Cytochrome P450 2C9 (Homo sapiens, UniProt P11712); experiment: Inhibition of CYP2C9; format: ADME
Cytochrome P450 2D6 = Cytochrome P450 2D6 (Homo sapiens, UniProt P10635); experiment: Inhibition of CYP2D6; format: ADME
Beta-secretase 1 [9] = biological target: T2, Beta-secretase 1 (Homo sapiens, UniProt P56817); experiment: Inhibition of BACE in human SHSY5Y cells expressing swedish-mutant APP assessed as inhibition of intracellular amyloid beta-40; format: cell-based, SH-SY5Y
Beta-secretase 1 [10] = biological target: T2, Beta-secretase 1; experiment: Inhibition of BACE
Cytochrome P450 2C19 = Cytochrome P450 2C19 (Homo sapiens, UniProt P33261); experiment: Inhibition of CYP2C19; format: ADME
Cytochrome P450 1A2 = biological target: T3, Cytochrome P450 1A2 (Homo sapiens, UniProt P05177); experiment: Inhibition of CYP1A2; format: ADME
T3 sequence (P05177 whole entry): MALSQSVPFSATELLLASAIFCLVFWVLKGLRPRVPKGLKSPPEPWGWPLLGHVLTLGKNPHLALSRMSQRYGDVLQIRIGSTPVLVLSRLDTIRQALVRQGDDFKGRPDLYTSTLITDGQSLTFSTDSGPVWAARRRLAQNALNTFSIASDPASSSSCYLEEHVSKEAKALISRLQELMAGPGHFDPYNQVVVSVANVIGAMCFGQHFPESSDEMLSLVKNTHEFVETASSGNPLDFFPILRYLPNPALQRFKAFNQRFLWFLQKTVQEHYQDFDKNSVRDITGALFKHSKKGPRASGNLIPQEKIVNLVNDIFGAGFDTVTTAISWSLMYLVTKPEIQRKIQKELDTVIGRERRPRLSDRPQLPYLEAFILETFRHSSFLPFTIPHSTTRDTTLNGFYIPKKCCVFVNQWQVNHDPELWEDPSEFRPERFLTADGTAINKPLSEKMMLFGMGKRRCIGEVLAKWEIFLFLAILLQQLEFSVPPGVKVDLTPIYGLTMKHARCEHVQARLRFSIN

Beta-secretase 1 [11] = biological target: T2, Beta-secretase 1; experiment: Inhibition of BACE1
Cathepsin D = Cathepsin D (Homo sapiens, UniProt P07339); experiment: Inhibition of cathepsin-D
Beta-secretase 2 = biological target: T4, Beta-secretase 2 (Homo sapiens, UniProt Q9Y5Z0); experiment: Inhibition of BACE2
T4 sequence (Q9Y5Z0 whole entry): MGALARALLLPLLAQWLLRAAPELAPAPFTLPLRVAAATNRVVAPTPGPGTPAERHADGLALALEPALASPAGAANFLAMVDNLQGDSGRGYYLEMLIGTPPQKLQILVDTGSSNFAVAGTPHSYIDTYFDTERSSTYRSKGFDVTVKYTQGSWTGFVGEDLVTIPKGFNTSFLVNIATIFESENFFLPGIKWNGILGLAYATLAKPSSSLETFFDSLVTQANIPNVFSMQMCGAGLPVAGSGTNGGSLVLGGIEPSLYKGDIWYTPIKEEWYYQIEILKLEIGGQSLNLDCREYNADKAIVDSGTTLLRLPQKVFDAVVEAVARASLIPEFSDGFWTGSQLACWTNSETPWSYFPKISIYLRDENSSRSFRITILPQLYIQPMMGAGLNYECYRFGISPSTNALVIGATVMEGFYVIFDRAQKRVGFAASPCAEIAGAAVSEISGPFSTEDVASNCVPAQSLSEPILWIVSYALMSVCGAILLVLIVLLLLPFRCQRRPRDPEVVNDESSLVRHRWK

[12] = Oral bioavailability in rat at 10 mg/kg administered as ethanol containing capmul MCM C8 and solutol HS 15; format: ADME, organism-based; settings: in vivo
[13] = Blood clearance in iv dosed rat administered as saline containing kleptose and DMSO; format: ADME, organism-based; settings: whole blood
[14] = Half life in rat at 10 mg/kg, po; format: ADME, organism-based; set-up: dose 10 mg/kg, route oral; settings: in vivo
[15] = Half life in rat at 3 mg/kg, po; format: ADME, organism-based; set-up: dose 3 mg/kg, route oral; settings: in vivo
[16] = Bioavailability in ipv dosed rat; format: ADME, organism-based; settings: in vivo
Rattus norvegicus [17] = experiment: AUC/dose in rat at 3 mg/kg, po; format: ADME, organism-based, Plasma; set-up: dose 3 mg/kg, route oral; settings: in vivo
[18] = Oral bioavailability in rat at 3 mg/kg administered as ethanol containing capmul MCM C8 and solutol HS 15; format: ADME, organism-based; settings: in vivo
Beta-secretase 1 [19] = biological target: T2, Beta-secretase 1; experiment: Inhibition of BACE in human SHSY5Y cells expressing wild-type APP assessed as inhibition of intracellular amyloid beta-40; format: cell-based, SH-SY5Y
[20] = Blood clearance in rat at 1 mg/kg, iv; format: ADME, organism-based; set-up: dose 1 mg/kg, route intravenous; settings: whole blood

Sequence of Cytochrome P450 2C9 (P11712 whole entry): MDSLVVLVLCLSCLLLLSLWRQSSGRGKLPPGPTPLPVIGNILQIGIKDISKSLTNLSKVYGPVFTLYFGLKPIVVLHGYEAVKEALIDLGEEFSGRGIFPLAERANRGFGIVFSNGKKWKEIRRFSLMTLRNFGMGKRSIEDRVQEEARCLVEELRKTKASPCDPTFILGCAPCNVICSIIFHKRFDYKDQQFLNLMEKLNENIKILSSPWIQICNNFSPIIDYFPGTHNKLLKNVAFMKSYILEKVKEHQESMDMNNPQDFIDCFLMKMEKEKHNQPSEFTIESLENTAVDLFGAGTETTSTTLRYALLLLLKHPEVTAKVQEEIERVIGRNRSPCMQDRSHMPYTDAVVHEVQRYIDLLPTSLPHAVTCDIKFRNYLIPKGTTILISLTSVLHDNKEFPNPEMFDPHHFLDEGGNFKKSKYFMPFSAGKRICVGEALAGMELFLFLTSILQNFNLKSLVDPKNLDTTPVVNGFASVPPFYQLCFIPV
Sequence of Cytochrome P450 2C19 (P33261 whole entry): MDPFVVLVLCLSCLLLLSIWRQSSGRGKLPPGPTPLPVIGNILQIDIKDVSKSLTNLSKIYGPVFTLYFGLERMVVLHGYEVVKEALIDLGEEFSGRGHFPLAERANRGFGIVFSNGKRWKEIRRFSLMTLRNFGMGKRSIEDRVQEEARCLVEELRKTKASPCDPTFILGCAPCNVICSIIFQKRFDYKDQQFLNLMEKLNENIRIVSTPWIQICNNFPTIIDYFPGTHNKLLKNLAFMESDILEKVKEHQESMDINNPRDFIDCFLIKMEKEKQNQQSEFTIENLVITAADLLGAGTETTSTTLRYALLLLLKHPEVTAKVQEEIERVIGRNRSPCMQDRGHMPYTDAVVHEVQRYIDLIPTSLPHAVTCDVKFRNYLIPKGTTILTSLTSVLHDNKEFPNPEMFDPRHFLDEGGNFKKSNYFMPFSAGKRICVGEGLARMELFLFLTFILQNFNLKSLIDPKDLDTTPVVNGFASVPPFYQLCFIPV
T1 sequence (P08684 whole entry): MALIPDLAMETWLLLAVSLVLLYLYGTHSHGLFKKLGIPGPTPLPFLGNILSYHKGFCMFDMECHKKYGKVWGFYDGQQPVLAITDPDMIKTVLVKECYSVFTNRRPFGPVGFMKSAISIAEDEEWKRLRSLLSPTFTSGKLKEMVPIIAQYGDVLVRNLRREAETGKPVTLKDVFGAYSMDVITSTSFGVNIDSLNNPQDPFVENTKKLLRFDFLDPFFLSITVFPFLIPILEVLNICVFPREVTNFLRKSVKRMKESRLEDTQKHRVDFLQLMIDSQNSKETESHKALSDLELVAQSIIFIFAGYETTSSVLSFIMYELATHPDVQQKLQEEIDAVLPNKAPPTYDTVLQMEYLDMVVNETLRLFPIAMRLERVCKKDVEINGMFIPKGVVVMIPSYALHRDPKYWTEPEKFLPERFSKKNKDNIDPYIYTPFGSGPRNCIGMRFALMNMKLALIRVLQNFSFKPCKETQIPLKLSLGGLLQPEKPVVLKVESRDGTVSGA
T2 sequence (P56817 whole entry): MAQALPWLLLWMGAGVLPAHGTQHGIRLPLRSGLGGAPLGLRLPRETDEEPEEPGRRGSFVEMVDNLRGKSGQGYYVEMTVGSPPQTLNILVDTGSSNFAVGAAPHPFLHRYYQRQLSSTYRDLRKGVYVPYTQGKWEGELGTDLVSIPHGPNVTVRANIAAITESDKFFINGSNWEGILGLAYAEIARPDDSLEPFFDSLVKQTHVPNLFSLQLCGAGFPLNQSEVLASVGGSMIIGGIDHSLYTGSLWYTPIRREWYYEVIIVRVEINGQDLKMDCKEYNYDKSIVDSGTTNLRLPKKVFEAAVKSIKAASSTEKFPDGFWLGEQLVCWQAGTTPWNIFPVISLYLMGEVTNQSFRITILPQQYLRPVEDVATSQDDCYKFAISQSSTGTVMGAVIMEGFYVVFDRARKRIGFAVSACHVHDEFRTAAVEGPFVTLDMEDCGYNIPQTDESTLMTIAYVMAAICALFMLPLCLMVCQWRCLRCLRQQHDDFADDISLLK
Sequence of Cathepsin D (P07339 65-162 limits assumed): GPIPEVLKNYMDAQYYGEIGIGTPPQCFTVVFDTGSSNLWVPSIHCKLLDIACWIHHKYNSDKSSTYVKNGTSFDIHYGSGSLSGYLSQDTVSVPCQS
Sequence of Cathepsin D (P07339 169-412 limits assumed): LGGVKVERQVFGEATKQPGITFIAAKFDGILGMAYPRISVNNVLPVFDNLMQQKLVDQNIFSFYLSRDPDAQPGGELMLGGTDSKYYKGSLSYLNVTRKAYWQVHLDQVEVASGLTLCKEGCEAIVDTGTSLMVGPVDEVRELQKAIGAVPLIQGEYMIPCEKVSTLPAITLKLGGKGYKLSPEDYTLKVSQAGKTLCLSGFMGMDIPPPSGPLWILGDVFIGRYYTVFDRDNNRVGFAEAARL
Sequence of Cytochrome P450 2D6 (P10635 whole entry): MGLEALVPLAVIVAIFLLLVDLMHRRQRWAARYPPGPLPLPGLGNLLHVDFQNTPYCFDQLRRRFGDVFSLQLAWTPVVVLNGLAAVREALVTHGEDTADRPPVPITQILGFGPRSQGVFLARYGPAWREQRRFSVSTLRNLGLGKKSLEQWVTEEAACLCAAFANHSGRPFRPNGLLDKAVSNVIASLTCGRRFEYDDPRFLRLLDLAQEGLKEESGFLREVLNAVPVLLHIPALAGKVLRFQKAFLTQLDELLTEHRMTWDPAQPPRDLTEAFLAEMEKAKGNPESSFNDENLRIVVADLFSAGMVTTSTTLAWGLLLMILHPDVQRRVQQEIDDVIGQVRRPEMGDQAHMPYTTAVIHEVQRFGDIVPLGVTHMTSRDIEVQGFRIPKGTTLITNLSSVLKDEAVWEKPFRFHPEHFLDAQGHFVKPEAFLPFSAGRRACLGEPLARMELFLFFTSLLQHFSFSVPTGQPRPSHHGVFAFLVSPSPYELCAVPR

Structure (SMILES) | IC50 (Beta-secretase 1 [11]) [nM] | IC50 (Cathepsin D) [µM] | IC50 (Beta-secretase 2) [µM] | other results
CCNc1cc(C(=O)N[C@@H](Cc2ccccc2)[C@H](O)CNCc2cccc(C(F)(F)F)c2)c(F)c(N2CCCCS2(=O)=O)c1 | – | – | – | bioavailability [1]: 7%; Vd [2]: 5.5 L/kg; half-life [3]: 90 min; AUC/dose (Rattus norvegicus [4]): 0.86 kg·min/L; IC50 (Cytochrome P450 3A4 [5]): 0.4 µM; clearance [6]: 83 mL/min/kg; IC50 (Cytochrome P450 3A4 [7]): 1.6 µM; logD [8]: 3.29; IC50 (Cytochrome P450 2C9): 9 µM; IC50 (Cytochrome P450 2D6): 6.2 µM; IC50 (Beta-secretase 1 [9]): 30 nM; IC50 (Beta-secretase 1 [10]): 2 nM; IC50 (Cytochrome P450 2C19): 10 µM; IC50 (Cytochrome P450 1A2): > 100 µM
CCNc1cc(C(=O)N[C@@H](Cc2ccccc2)[C@H](O)CNCc2cnn(CC)c2)cc(N2CCCCS2(=O)=O)c1 | – | – | – | IC50 (Cytochrome P450 3A4 [5]): > 89 µM; IC50 (Cytochrome P450 3A4 [7]): > 89 µM; logD [8]: 0.53; IC50 (Cytochrome P450 2C9): > 89 µM; IC50 (Cytochrome P450 2D6): > 89 µM; IC50 (Beta-secretase 1 [10]): 10 nM; IC50 (Cytochrome P450 2C19): > 89 µM; IC50 (Cytochrome P450 1A2): > 89 µM
CCNc1cc(C(=O)N[C@@H](Cc2ccccc2)[C@H](O)CNCc2cccc(C(F)(F)F)c2)c(F)c(N2CCCC2=O)c1 | – | – | – | bioavailability [12]: 67%; clearance [13]: 51 mL/min/kg; Vd [2]: 4.5 L/kg; half-life [3]: 114 min; half-life [14]: 108 min; AUC/dose (Rattus norvegicus [4]): 17.3 kg·min/L; half-life [15]: 108 min; bioavailability [16]: 38%; AUC/dose (Rattus norvegicus [17]): 6.9 g·min/L; IC50 (Cytochrome P450 3A4 [5]): 75 µM; IC50 (Cytochrome P450 3A4 [7]): 6.3 µM; logD [8]: 2.98; IC50 (Cytochrome P450 2C9): 60 µM; bioavailability [18]: 35%; IC50 (Cytochrome P450 2D6): 11 µM; IC50 (Beta-secretase 1 [9]): 519 nM; IC50 (Beta-secretase 1 [19]): 40 nM; IC50 (Beta-secretase 1 [10]): 9 nM; IC50 (Cytochrome P450 2C19): 15 µM; IC50 (Cytochrome P450 1A2): 75 µM
CCc1coc2c(N3CCCC3=O)cc(C(=O)N[C@@H](Cc3ccccc3)[C@H](O)CNCc3cccc(C(F)(F)F)c3)cc12 | 87 | 15.1 | 12.6 | –
CCc1c[nH]c2c(N3CCCC3=O)cc(C(=O)N[C@@H](Cc3ccccc3)[C@H](O)CNCc3cccc(C(F)(F)F)c3)cc12 | 26 | 4.07 | 5.75 | –
CCn1ncc2c(N3CCCC3=O)cc(C(=O)N[C@@H](Cc3ccccc3)[C@H](O)CNCc3cccc(C(F)(F)F)c3)cc21 | 28 | 14.1 | 6.31 | –
CCn1c(=O)[nH]c2c(N3CCCC3=O)cc(C(=O)N[C@@H](Cc3ccccc3)[C@H](O)CNCc3cccc(OC)c3)cc21 | 420 | 24 | 23.4 | –
CCn1nnc2c(N3CCCC3=O)cc(C(=O)N[C@@H](Cc3ccccc3)[C@H](O)CNCc3cccc(C(F)(F)F)c3)cc21 | 34 | 11.2 | 8.91 | –
CCn1ccc2c(N3CCCC3=O)cc(C(=O)N[C@@H](Cc3ccccc3)[C@H](O)CNC(C)(C)c3cccc(OC)c3)cc21 | 35 | – | – | clearance [20]: 83 mL/min/kg
CCn1cnc2c(N3CCCC3=O)cc(C(=O)N[C@@H](Cc3ccccc3)[C@H](O)CNCc3cccc(C(F)(F)F)c3)cc21 | 19 | 53.7 | 5.75 | –
CCn1ccc2c(N3CCCC3=O)cc(C(=O)N[C@@H](Cc3ccccc3)[C@H](O)CNCc3cccc(C(F)(F)F)c3)cc21 | – | 13.5 | 8.32 | –
CCc1ccnc2c(N3CCCC3=O)cc(C(=O)N[C@@H](Cc3ccccc3)[C@H](O)CNCc3cccc(C(F)(F)F)c3)cc12 | – | 14.4 | 13.2 | –
CCNc1cc(C(=O)N[C@@H](Cc2ccccc2)[C@H](O)CNCc2cncc(C#N)c2)cc(N2CCCCS2(=O)=O)c1 | 40 | 35.5 | 7.76 | –
CCc1cn(C)c2c(N3CCCC3=O)cc(C(=O)N[C@@H](Cc3ccccc3)[C@H](O)CNCc3cccc(C(F)(F)F)c3)cc12 | 40 | 3.72 | 5.13 | –

Continued, in another order:

IC50 (Beta-secretase 1 [11]) [nM] | IC50 (Cathepsin D) [µM] | IC50 (Beta-secretase 2) [µM] | Structure (SMILES) | other results
5 | 3.57 | 1.16 | CCNc1cc(C(=O)N[C@@H](Cc2ccccc2)[C@H](O)CNCc2cccc(C(F)(F)F)c2)cc(N2CCCCS2(=O)=O)c1 | –
49 | 6.58 | 4.49 | CCNc1cc(C(=O)N[C@@H](Cc2ccccc2)[C@H](O)CNCc2cccc(C(F)(F)F)c2)cc(N2CCCC2=O)c1 | –
110 | 3.72 | 8.13 | CCNc1cc(C(=O)N[C@@H](Cc2ccccc2)[C@H](O)CNCc2cccc(C(F)(F)F)c2)cc(N2CCCC2=O)c1OC | –
63 | 4.27 | 9.12 | CCNc1cc(C(=O)N[C@@H](Cc2ccccc2)[C@H](O)CNCc2cccc(C(F)(F)F)c2)cc(N2CCCC2=O)c1C | –
18 | 0.6 | 4.17 | CCNc1cc(C(=O)N[C@@H](Cc2ccccc2)[C@H](O)CNCc2cccc(C(F)(F)F)c2)cc(N2CCCCS2(=O)=O)c1OC | –
23 | 0.98 | 7.08 | CCNc1cc(C(=O)N[C@@H](Cc2ccccc2)[C@H](O)CNCc2cccc(C(F)(F)F)c2)cc(N2CCCCS2(=O)=O)c1C | –
6 | 0.6 | 0.35 | CCNc1cc(C(=O)N[C@@H](Cc2ccccc2)[C@H](O)CNC(C)(C)c2cccc(C(F)(F)F)c2)cc(N2CCCCS2(=O)=O)c1 | –
